Measured values as given in US20180064829A1, “FLUORESCENT BISPHOSPHONATE ANALOGS” (University of Southern California, priority 2015, published 2018).
Read-outs that look alike come from different tables or passages of the source.

Experiments:
[1] = UV-VIS absorption and fluorescence emission spectra; assay type: physicochemical; conditions: 0.1M phosphate buffer (1x PBS for 7d5); ± 1 nm error
Protocol: All labeled samples were dissolved in water and diluted with 0.1 M phosphate buffer or 1×PBS (for 7d5). Assuming that the labeled bisphosphonates have the same extinction coefficient (E) as the carboxylic acid of the free fluorescent label, the final concentrations for all labeled products were calculated from UV-VIS absorption spectra at λ=493 nm (ε=73000 M^−1 cm^−1 at pH 7.2) for FAM conjugates (7a1-7a3, 7b1, 7c1, 7d1-7d2, 7e1-7e2, 7f1-7f2), λ=567.5 nm (ε=114850 M^−1cm^−1 at pH 7.5) for RhR-X conjugates (7a4, 7b2, 7c2), λ=580 nm (c=72000 M^−1cm^−1 at pH 8.0) for ROX conjugates (7a5, 7b3), λ=648 nm (ε=240000 M^−1cm^−1 at pH 7.2) for AF647 conjugates (7a6, 7b4, 7d3), λ=774 nm (ε=240000 M^−1cm^−1 at pH 7.4) for 800CW conjugates (7d4), λ=644 nm (ε=271000 M^−1cm^−1 at pH 7.4, 1×PBS) for Sulfo-Cy5 conjugates (7d5).
Emission spectra for FAM and RhR-X conjugates were recorded using an excitation wavelength of 490 nm or 520 nm, respectively. Emission spectra for AF647 conjugates and Sulfo-Cy5 conjugates were recorded using an excitation wavelength of 600 nm. Emission spectra of 5(6)-ROX conjugates were recorded using an excitation wavelength of 575 nm. Emission spectra of IRDye CW800 conjugate was recorded using an excitation wavelength of 750 nm. The set-up of excitation slit, emission slit, integration time and increment were determined to get optimal spectra for each compound respectively, depending on the sample concentration and spectrometer used.

[2] = system: unprenylated Rap1A (uRap1A); experiment: Prenylation assay: Western blot for unprenylated Rap1A in J774.2 macrophages; assay type: cell-based, mouse; conditions: 10 or 100 μM, 24 h, FIG. 5A-C
Protocol: To determine the effect of fluorescent BP probes on protein prenylation, J774.2 mouse macrophages were plated out at 2×10^5 cells/mL in 24-well plates and left to adhere overnight. Cells were then treated with 10 or 100 μM of fluorescent analogues of RIS, dRIS, and ZOL, the respective native BP, or vehicle, for 24 h. Cells were lysed in radioimmunoprecipitation buffer, and proteins were separated by sodium dodecyl sulfate polyacrylamide gel electrophoresis and transferred to polyvinyl difluoride membranes by western blotting. Membranes were then incubated with antibodies to the unprenylated form of Rap1A (uRap1A) and the housekeeping protein β-actin, which were detected by incubation with fluorescently-labeled secondary antibodies and scanning of membranes on a LI-COR Infrared Imager. Results shown are representative of 2 independent experiments. The ratio between abundance of unprenylated RaplA and β-actin is indicated for each sample below the blots in FIG. 5.

[3] = assumed the same as the corresponding fluorescent dye, cited from earlier work

Molecule | Maximum absorption wavelength (λmax (abs), nm) [1] [nm] | Maximum emission wavelength (λmax (em), nm) [1] [nm] | accumulation of unprenylated Rap1A (anti-prenylation activity) [2] | Extinction coefficient ([3]; pH 7.2, 0.1M phosphate buffer) | Extinction coefficient ([3]; pH 8.0, 0.1M phosphate buffer) | Extinction coefficient ([3]; pH 7.5, 0.1M phosphate buffer)
1-(3-(4-carboxy-3-(6-hydroxy-3-oxo-3H-xanthen-9-yl)benzamido)-2-hydroxypropyl)-3-(2-hydroxy-2,2-diphosphonoethyl)pyridin-1-ium [Compound 6-FAM-RIS] | 493 | 517 | clearly detectable | 73,000 (pH 7.2) M^−1cm^−1 | – | –
16-[2-carboxy-4-({2-hydroxy-3-[4-(2-hydroxy-2,2-diphosphonoethyl)pyridin-1-ium-1-yl]propyl}carbamoyl)phenyl]-3-oxa-9λ^5,23-diazaheptacyclo[17.7.1.1^5,9.0^2,17.0^4,15.0^23,27.0^13,28]octacosa-1(27),2(17),4,9(28), 13,15,18-heptaen-9-ylium [5(6)-ROX-RIS] | 580 | 606 | shows activity | – | 72,000 (pH 8.0) M^−1cm^−1 | –
16-[2-carboxy-4-({3-[4-(2-carboxy-2-hydroxy-2-phosphonoethyl)pyridin-1-ium-1-yl]-2-hydroxypropyl}carbamoyl)phenyl]-3-oxa-9λ^5,23-diazaheptacyclo[17.7.1.1^5,9.0^2,17.0^4,15.0^23,27.0^13,28]octacosa-1(27),2(17),4,9(28), 13,15,18-heptaen-9-ylium [5(6)-ROX-RISPC] | 579 | 606 | – | – | 72,000 (pH 8.0) M^−1cm^−1 | –
CCN(CC)c1ccc2c(-c3ccc(S(=O)(=O)NCCCCCC(=O)NCC(O)C[n+]4cccc(CC(P(=O)(O)O)P(=O)(O)O)c4)cc3S(=O)(=O)O)c3ccc(=[N+](CC)CC)cc-3oc2c1 (stereo not drawn) [5(6)-RhR-dRIS, 1-{3-[6-({4-[6-(diethylamino)-3-(diethylimino)-3H-xanthen-9-yl]-3-sulfobenzene}sulfonamido)hexanamido]-2-hydroxypropyl}-3-(2,2-diphosphonoethyl)pyridin-1-ium] | 567.5 | 589 | – | – | – | 114,850 (pH 7.5) M^−1cm^−1
CCN(CC)c1ccc2c(-c3ccc(S(=O)(=O)NCCCCCC(=O)NCC(O)C[n+]4cccc(CC(O)(P(=O)(O)O)P(=O)(O)O)c4)cc3S(=O)(=O)O)c3ccc(=[N+](CC)CC)cc-3oc2c1 (stereo not drawn) [5(6)-RhR-RIS, 1-{3-[6-({4-[6-(diethylamino)-3-(diethylimino)-3H-xanthen-9-yl]-3-sulfobenzene}sulfonamido)hexanamido]-2-hydroxypropyl}-3-(2-hydroxy-2,2-diphosphonoethyl)pyridinium] | 567.5 | 589 | – | – | – | 114,850 (pH 7.5) M^−1cm^−1
1-(3-(3-carboxy-4-(6-hydroxy-3-oxo-3H-xanthen-9-yl)benzamido)-2-hydroxypropyl)-3-(2-hydroxy-2,2-diphosphonoethyl)pyridin-1-ium [Compound 5-FAM-RIS] | 493 | 521 | clearly detectable | 73,000 (pH 7.2) M^−1cm^−1 | – | –
O=C(NCC(O)C[n+]1cc(CC(O)(P(=O)(O)O)P(=O)(O)O)n2ccccc21)c1ccc(C(=O)O)c(-c2c3ccc(=O)cc-3oc3cc(O)ccc23)c1 (stereo not drawn) [Compound 6-FAM-MIN, 1-(3-(4-carboxy-3-(6-hydroxy-3-oxo-3H-xanthen-9-yl)benzamido)-2-hydroxypropyl)-3-(2-hydroxy-2,2-diphosphonoethyl)imidazo[1,2-a]pyridin-1-ium] | 493 | 518 | – | 73,000 (pH 7.2) M^−1cm^−1 | – | –
O=C(NCC(O)C[n+]1cc(CC(O)(C(=O)O)P(=O)(O)O)n2ccccc21)c1ccc(C(=O)O)c(-c2c3ccc(=O)cc-3oc3cc(O)ccc23)c1 (stereo not drawn) [Compound 6-FAM-MINPC, 3-(2-carboxy-2-hydroxy-2-phosphonoethyl)-1-(3-(4-carboxy-3-(6-hydroxy-3-oxo-3H-xanthen-9-yl)benzamido)-2-hydroxypropyl)imidazo[1,2-a]pyridin-1-ium] | 493 | 517 | – | 73,000 (pH 7.2) M^−1cm^−1 | – | –
